Columns and labels:
Assay type in all cases: cell-based
Escherichia coli = assay: Bactericide test, Escherichia coli (agar streak plate)
Text: Test formulations were examined for bactericidal and/or bacteriostatic activity against the test organisms shown in Tables A and B. These organisms were chosen as being representative of commercially important pathogens affecting animal agriculture. The antibiotic chlortetracycline was chosen as a positive control, since it has a broad spectrum of activity against a large number of organisms, and its activity can be used for comparative purposes.
Basic test formulations of the product of Examples I, II, III, and of chlortetracycline were prepared by dissolving 16 mg (0.016 g) in 2.0 ml of stock emulsifier solution (0.25% Triton X-155 in acetone by volume) and making each solution up to 50 ml with deionized water. The concentration of the test compound in the basic formulation was 320 ppm. Lower concentrations of the test compound were obtained by diluting the basic formulation with a 4% solution of the stock emulsifier in deionized water so that each dilution in the series differed only in test compound content.
Nutrient-tryptic soy agar (NTA) consisting of 2.0% Difco Bactoagar 0.8% nutrient broth (Difco), and 0.5% tryptic soy broth (Difco) was prepared and sterilized by autoclaving. A 2 ml aliquot of each test formulation was added to 8 ml of molten NTA. This mixture was then plated in a sterile polystyrene petri dish (100 × 15 mm). After the agar was set, suspensions of each of the test organisms were simultaneously streaked onto the surface of the agar. The inoculated plates were incubated for 48 hr at 28°C. The inhibition of growth of each organism was rated by visual comparison with the organism developing on non-treated agar. Growth inhibition reported as per cent control was rated in three categories as follows: 0% control, growth equivalent to that on non-treated agar; 50% control, sparse development and separated colonies; 100% control, no visible growth or development of colonies.
Test formulations of the product of Example IV were examined for bactericidal and/or bacteriostatic activity against the test organisms shown in Table B using the Bactericide Test described in Example V. The inhibition of organism growth with each diluted test formulation was rated visually by comparison with the organism developing on a non-treated control agar plate. Growth inhibition reported as per cent control was rated in three categories as follows: 0% control, growth equivalent to that on non-treated agar; 50% control is sparse development and separated colonies; and 100% control, development of individual colonies was not apparent.

Staphylococcus aureus = assay: Bactericide test, Staphylococcus aureus (agar streak plate); details: Staphylococcus aureus
How it was run: (§1)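 Compounds in Triton X-155/acetone emulsifier (basic formulation 320 ppm, diluted serially) were mixed 2:8 into molten nutrient-tryptic soy agar, then organisms streaked on the set plates. After 48 hr at 28°C, growth was scored visually against untreated agar as 0%, 50% (sparse, separated colonies) or 100% control (no visible colonies).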

Streptococcus faecalis = assay: Bactericide test, Streptococcus faecalis (agar streak plate); details: Enterococcus faecalis
How it was run: as §1

Salmonella cholerasuis = assay: Bactericide test, Salmonella cholerasuis (agar streak plate); details: Salmonella
How it was run: as §1

Salmonella gallinarum = assay: Bactericide test, Salmonella gallinarum (agar streak plate); details: Salmonella enterica, GALLINARUM
How it was run: as §1

[1] = system: Erysipelothrix rhusiopathiae; assay: Bactericide test, Erysipelothrix rhusiopathiae (agar streak plate); details: Erysipelothrix rhusiopathiae
How it was run: (§2)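 Compounds were formulated with Triton X-155/acetone emulsifier (basic formulation 320 ppm, serially diluted) and mixed 2:8 into molten nutrient-tryptic soy agar. Organisms were streaked onto the plates and incubated 48 hr at 28°C. Growth inhibition was scored visually against untreated agar as 0, 50 or 100% control.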

[2] = system: Bordetella bronchiseptica; assay: Bactericide test, Bordetella bronchiseptica (agar streak plate); details: Bordetella bronchiseptica
How it was run: as §2

Salmonella typhimurium = assay: Bactericide test, Salmonella typhimurium (agar streak plate); details: Salmonella enterica, TYPHIMURIUM
How it was run: as §2

Streptococcus agalactiae = assay: Bactericide test, Streptococcus agalactiae (agar streak plate); details: Streptococcus agalactiae
How it was run: as §2

Streptococcus group E = assay: Bactericide test, Streptococcus group E (agar streak plate)
How it was run: as §2

Vibrio coli = assay: Bactericide test, Vibrio coli (agar streak plate); details: Campylobacter coli
How it was run: as §2

## CN(C)[C@@H]1C(O)=C(C(N)=O)C(=O)[C@@]2(O)C(O)=C3C(=O)c4c(O)ccc(Cl)c4[C@@](C)(O)[C@H]3C[C@@H]12 [Chlortetracycline, reference compound]
Escherichia coli
  inhibition at 1 ppm: 0%
  inhibition at 4 ppm: 0%
  inhibition at 16 ppm: 100%
  inhibition at 64 ppm: 100%
Staphylococcus aureus
  inhibition at 1 ppm: 0%
  inhibition at 4 ppm: 0%
  inhibition at 16 ppm: 100%
  inhibition at 64 ppm: 100%
Streptococcus faecalis
  inhibition at 1 ppm: 100%
  inhibition at 4 ppm: 100%
  inhibition at 16 ppm: 100%
  inhibition at 64 ppm: 100%
Salmonella cholerasuis
  inhibition at 1 ppm: 0%
  inhibition at 4 ppm: 0%
  inhibition at 16 ppm: 100%
  inhibition at 64 ppm: 100%
Salmonella gallinarum; 1 ppm
  inhibition at 1 ppm: 0%
Salmonella gallinarum; 4 ppm
  inhibition at 4 ppm: 0%
Salmonella gallinarum; 16 ppm
  inhibition at 16 ppm: 100%
Salmonella gallinarum; 64 ppm
  inhibition at 64 ppm: 100%
[1]; 1 ppm
  inhibition at 1 ppm: 0%
[1]; 4 ppm
  inhibition at 4 ppm: 10%
[1]; 16 ppm
  inhibition at 16 ppm: 100%
[1]; 64 ppm
  inhibition at 64 ppm: 100%
[2]
  inhibition at 1 ppm: 0%
  inhibition at 4 ppm: 0%
  inhibition at 16 ppm: 0%
  inhibition at 64 ppm: 100%
Salmonella typhimurium
  inhibition at 1 ppm: 0%
  inhibition at 4 ppm: 0%
  inhibition at 16 ppm: 0%
  inhibition at 64 ppm: 0%
Streptococcus agalactiae
  inhibition at 1 ppm: 0%
  inhibition at 4 ppm: 100%
  inhibition at 16 ppm: 100%
  inhibition at 64 ppm: 100%
Streptococcus group E
  inhibition at 1 ppm: 0%
  inhibition at 4 ppm: 0%
  inhibition at 16 ppm: 100%
  inhibition at 64 ppm: 100%
Vibrio coli; 1 ppm
  inhibition at 1 ppm: 0%
Vibrio coli; 4 ppm
  inhibition at 4 ppm: 100%
Vibrio coli; 16 ppm
  inhibition at 16 ppm: 100%
Vibrio coli; 64 ppm
  inhibition at 64 ppm: 100%
